According to ChEMBL document CHEMBL6109142 (J Med Chem, 2025):
Calls of active or inactive are those of the source. No cut-off for these calls is given here.

Columns and labels:
[1] = target: T1, Transmembrane protease serine 2 (Homo sapiens, UniProt O15393); test: Inhibition of recombinant TMPRSS2 (unknown origin) extracted from baculovirus infected in Sf9 cells assessed as residual activity using Boc-QAR-AMC as substrate at 1 nM measured after 1 hr by fluorescence based analysis relative to control
SARS-CoV-2 [2] = test: Antiviral activity against SARS-CoV-2 pseudotyped with delta spike protein infected in human Calu-3 cells assessed as prevention of virus-like particle cellular entry at 300 nM preincubated with cells for 3 hrs followed by viral infection and measured after 72 hrs by ONE-Glo-Ex luciferase assay relative to control; type: functional, Severe acute respiratory syndrome coronavirus 2; settings: time 75 hrs
[3] = target: T1, Transmembrane protease serine 2; test: Inhibition of recombinant TMPRSS2 (unknown origin) extracted from baculovirus infected in Sf9 cells using Boc-QAR-AMC as substrate measured after 1 hr by fluorescence based analysis
Calu-3 = test: Cytotoxicity against human Calu-3 cells assessed as cell viability at 10 uM measured after 72 hrs by luminescence based Cell-Titer-Glo assay; type: toxicity; settings: calu-3, 72 h
SARS-CoV-2 [4] = test: Antiviral activity against SARS-CoV-2 EG.5.1 infected in human Calu-3 cells assessed as reduction in residual intracellular nucleocapsid value at 1 uM preincubated with cells for 3 hrs followed by viral infection and measured after 48 hrs by immunostaining based analysis; type: functional, organism-based; settings: Severe acute respiratory syndrome coronavirus 2, time 51.0 hrs
SARS-CoV-2 [5] = test: Antiviral activity against SARS-CoV-2 EG.5.1 infected in human Calu-3 cells assessed as reduction in residual intracellular nucleocapsid value at 1 uM preincubated with cells for 3 hrs followed by viral infection and measured after 48 hrs by immunostaining based analysis relative to control; type: functional, Severe acute respiratory syndrome coronavirus 2; settings: time 51 hrs
[6] = target: T1, Transmembrane protease serine 2; test: Inhibition of recombinant das TMPRSS2 (unknown origin) extracted from baculovirus infected in Sf9 cells assessed as inhibition constant using Boc-QAR-AMC as substrate measured after 1 hr by fluorescence based analysis
Procathepsin L = Procathepsin L (Homo sapiens, UniProt P07711); test: Inhibition of recombinant human C-terminal 6 his-tagged Cathepsin L assessed as inhibition constant using Z-LR-AMC as peptide substrate incubated for 1 hr by fluorescence based analysis
SARS-CoV-2 [7] = test: Antiviral activity against SARS-CoV-2 EG.5.1 infected in human Calu-3 cells preincubated with cells for 3 hrs followed by viral infection and measured after 48 hrs by immunostaining based analysis; type: functional, organism-based; settings: Severe acute respiratory syndrome coronavirus 2, EG.5.1, Calu-3
SARS-CoV-2 [8] = test: Antiviral activity against SARS-CoV-2 JN.1 infected in human Calu-3 cells preincubated with cells for 3 hrs followed by viral infection and measured after 48 hrs by immunostaining based analysis; type: functional, organism-based; settings: Severe acute respiratory syndrome coronavirus 2, JN.1, Calu-3
[9] = Cytotoxicity against human Calu-3 cells assessed as cell viability measured after 72 hrs by luminescence based Cell-Titer-Glo assay; type: toxicity
[10] = target: T1, Transmembrane protease serine 2; test: Inhibition of full length TMPRSS2 (unknown origin) expressed in African green monkey Vero E6 cells using Boc-QAR-AMC as substrate incubated for 24 hrs by microplate reader analysis; type: cell-based
[11] = Toxicity in C57BL/6J mouse at 5 mg/kg, iv measured for 24 hrs; type: organism-based; settings: in vivo
[12] = Toxicity in C57BL/6J mouse at 5 mg/kg, ISIN (Intranasal) measured for 24 hrs; type: organism-based; settings: in vivo, inhaled_or_intranasal
[13] = Half life in C57BL/6J mouse plasma at 5 mg/kg, iv measured up to 24 hrs by LC-MS/MS analysis; type: ADME, organism-based; settings: in vivo
[14] = Half life in C57BL/6J mouse plasma at 5 mg/kg, ISIN (Intranasal) measured up to 24 hrs by LC-MS/MS analysis; type: ADME, organism-based; settings: in vivo, inhaled_or_intranasal
[15] = Bioavailability in C57BL/6J mouse at 5 mg/kg, ISIN (Intranasal) measured up to 24 hrs by LC-MS/MS analysis; type: ADME, organism-based; settings: in vivo, inhaled_or_intranasal
[16] = Drug concentration in C57BL/6J mouse plasma measured after 15 mins; type: ADME; settings: read-out: Drug uptake

T1 sequence (O15393 1-255 limits assumed): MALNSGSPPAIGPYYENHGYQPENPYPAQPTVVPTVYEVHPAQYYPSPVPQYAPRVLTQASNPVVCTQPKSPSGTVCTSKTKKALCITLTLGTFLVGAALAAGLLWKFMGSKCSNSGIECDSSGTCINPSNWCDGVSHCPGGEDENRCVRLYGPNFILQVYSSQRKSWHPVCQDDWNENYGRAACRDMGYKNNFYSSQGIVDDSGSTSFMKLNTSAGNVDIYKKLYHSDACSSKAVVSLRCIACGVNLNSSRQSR
T1 sequence (O15393 256-492 limits assumed): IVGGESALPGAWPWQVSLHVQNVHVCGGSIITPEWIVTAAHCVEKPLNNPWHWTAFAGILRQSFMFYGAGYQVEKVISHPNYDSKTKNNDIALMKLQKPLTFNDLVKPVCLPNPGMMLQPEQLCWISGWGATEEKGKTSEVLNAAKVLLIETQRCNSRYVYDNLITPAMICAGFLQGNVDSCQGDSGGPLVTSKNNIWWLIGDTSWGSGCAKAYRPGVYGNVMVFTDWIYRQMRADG
Procathepsin L, sequence (P07711 114-333 limits assumed): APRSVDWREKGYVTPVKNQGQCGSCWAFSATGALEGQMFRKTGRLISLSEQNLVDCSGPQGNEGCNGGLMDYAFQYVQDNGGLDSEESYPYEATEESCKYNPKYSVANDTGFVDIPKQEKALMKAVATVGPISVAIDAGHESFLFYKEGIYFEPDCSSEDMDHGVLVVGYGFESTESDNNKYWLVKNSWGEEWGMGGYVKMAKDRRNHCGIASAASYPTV

N=C(N)NCCC[C@H](NC(=O)[C@H](Cc1ccccc1)NC(=O)[C@H](CCC(N)=O)NC(=O)OCc1ccccc1)C(=O)c1nccs1
Activity [1]: 3%
Activity (SARS-CoV-2 [2]): 13%
IC50 [3]: 0.35 nM
Activity (Calu-3): Non-toxic
Activity (SARS-CoV-2 [4]): Active
Activity (SARS-CoV-2 [5]): 2.2%
Ki [6]: 0.03 nM
inhibition (Procathepsin L): inactive
EC50 (SARS-CoV-2 [7]): 0.3 nM
EC50 (SARS-CoV-2 [8]): 0.09 nM
CC50 at 72 h [9]: 110 µM
IC50 [10]: 0.59 nM
Activity [11]: Non-toxic
Activity [12]: Non-toxic
t1/2 [13]: 4.79 h
t1/2 [14]: 1.8 h
F [15]: 10.9%
concentration at 0.25 h [16]: 182 ng/mL
